Laboratory results as given in ChEMBL document CHEMBL1275384, “Structure-activity relationships of benzimidazole-based selective inhibitors of the mitogen activated kinase-5 signaling pathway” (2010).

Assays:
[1] = target: T1, Dual specificity mitogen-activated protein kinase kinase 5 (Homo sapiens) (UniProt Q13163); conditions: HEK293, at 10 µM;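 further: MEK5 activity stimulated by EGF, read out as phospho-ERK5 on Western blot after 1 h treatment, expressed relative to control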
T1 sequence (whole entry): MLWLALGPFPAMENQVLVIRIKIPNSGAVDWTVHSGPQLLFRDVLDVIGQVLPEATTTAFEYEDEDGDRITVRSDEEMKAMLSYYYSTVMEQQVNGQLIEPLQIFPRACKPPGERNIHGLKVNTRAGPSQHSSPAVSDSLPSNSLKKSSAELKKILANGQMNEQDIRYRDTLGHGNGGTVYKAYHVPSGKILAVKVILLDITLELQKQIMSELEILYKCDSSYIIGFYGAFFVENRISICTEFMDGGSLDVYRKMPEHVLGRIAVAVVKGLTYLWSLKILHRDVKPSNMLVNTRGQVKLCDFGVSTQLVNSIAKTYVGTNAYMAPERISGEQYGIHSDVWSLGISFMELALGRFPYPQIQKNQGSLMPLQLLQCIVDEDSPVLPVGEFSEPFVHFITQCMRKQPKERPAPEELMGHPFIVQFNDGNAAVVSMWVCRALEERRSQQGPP
Description: Inhibition of EGF-induced MEK5 activity in HEK293 cells assessed as phosphorylated ERK5 level at 10 uM after 1 hr by Western blotting relative to control

RXF 393 = assay: Cytotoxicity against human RXF393 cells at 10 uM assessed as cell growth relative to control; format: functional; conditions: read-out: Activity
NCI-H522 = assay: Cytotoxicity against human NCI-H522 cells at 10 uM assessed as cell growth relative to control; format: functional; conditions: read-out: Activity
CCRF-CEM = assay: Cytotoxicity against human CCRF-CEM cells at 10 uM assessed as cell growth relative to control; format: functional; conditions: read-out: Activity
MDA-N = assay: Cytotoxicity against human MDA-N cells at 10 uM assessed as cell growth relative to control; format: functional; conditions: read-out: Activity
BT-549 = assay: Cytotoxicity against human BT549 cells at 10 uM assessed as cell growth relative to control; format: functional; conditions: read-out: Activity
NCI/ADR-RES = assay: Cytotoxicity against human NCI/ADR-RES cells at 10 uM assessed as cell growth relative to control; format: functional; conditions: read-out: Activity
HOP-62 = assay: Cytotoxicity against human HOP62 cells at 10 uM assessed as cell growth relative to control; format: functional; conditions: read-out: Activity
SNB-19 = assay: Cytotoxicity against human SNB19 cells at 10 uM assessed as cell growth relative to control; format: functional; conditions: read-out: Activity
M14 = assay: Cytotoxicity against human M14 cells at 10 uM assessed as cell growth relative to control; format: functional; conditions: read-out: Activity
SN12C = assay: Cytotoxicity against human SN12C cells at 10 uM assessed as cell growth relative to control; format: functional; conditions: read-out: Activity
HL-60(TB) = assay: Cytotoxicity against human HL-60(TB) cells at 10 uM assessed as cell growth relative to control; format: functional; conditions: read-out: Activity
U-251 = assay: Cytotoxicity against human U251 cells at 10 uM assessed as cell growth relative to control; format: functional; conditions: read-out: Activity
[2] = target: Dual specificity mitogen-activated protein kinase kinase; MEK1/2 (Homo sapiens) (UniProt P36507+Q02750); conditions: HEK293, at 10 µM
Dual specificity mitogen-activated protein kinase kinase; MEK1/2 (Homo sapiens), sequence (P36507 whole entry, looked up): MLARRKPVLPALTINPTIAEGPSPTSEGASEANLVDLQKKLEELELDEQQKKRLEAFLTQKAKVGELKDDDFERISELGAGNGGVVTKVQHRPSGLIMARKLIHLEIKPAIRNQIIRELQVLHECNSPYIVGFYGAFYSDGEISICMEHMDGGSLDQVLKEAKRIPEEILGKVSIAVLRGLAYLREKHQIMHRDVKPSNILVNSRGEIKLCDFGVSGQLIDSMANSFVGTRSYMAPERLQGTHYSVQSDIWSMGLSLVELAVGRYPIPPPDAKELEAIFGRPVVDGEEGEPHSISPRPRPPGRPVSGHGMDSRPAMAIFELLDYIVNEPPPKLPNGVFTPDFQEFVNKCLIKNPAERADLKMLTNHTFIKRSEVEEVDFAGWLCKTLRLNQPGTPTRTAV
Dual specificity mitogen-activated protein kinase kinase; MEK1/2 (Homo sapiens), sequence (Q02750 whole entry, looked up): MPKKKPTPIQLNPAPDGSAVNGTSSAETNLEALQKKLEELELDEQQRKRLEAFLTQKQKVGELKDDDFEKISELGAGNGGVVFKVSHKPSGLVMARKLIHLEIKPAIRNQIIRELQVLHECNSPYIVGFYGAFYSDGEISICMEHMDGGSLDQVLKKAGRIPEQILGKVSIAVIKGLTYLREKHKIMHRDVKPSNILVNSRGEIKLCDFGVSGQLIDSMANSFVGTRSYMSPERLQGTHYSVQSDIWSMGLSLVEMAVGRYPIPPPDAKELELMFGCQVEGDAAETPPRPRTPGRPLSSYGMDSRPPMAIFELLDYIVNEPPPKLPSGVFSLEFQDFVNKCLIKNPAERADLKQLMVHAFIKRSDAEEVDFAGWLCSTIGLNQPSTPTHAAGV
Description: Inhibition of EGF-induced MEK1/2 activity in HEK293 cells assessed as phosphorylated ERK1/2 level at 10 uM after 1 hr by Western blotting relative to control

DU-145 = assay: Cytotoxicity against human DU145 cells at 10 uM assessed as cell growth relative to control; format: functional; conditions: read-out: Activity
A498 = assay: Cytotoxicity against human A498 cells at 10 uM assessed as cell growth relative to control; format: functional; conditions: read-out: Activity
OVCAR-5 = assay: Cytotoxicity against human OVCAR5 cells at 10 uM assessed as cell growth relative to control; format: functional; conditions: read-out: Activity
NCI-H23 = assay: Cytotoxicity against human NCI-H23 cells at 10 uM assessed as cell growth relative to control; format: functional; conditions: read-out: Activity
PC-3 = assay: Cytotoxicity against human PC3 cells at 10 uM assessed as cell growth relative to control; format: functional; conditions: read-out: Activity
SNB-75 = assay: Cytotoxicity against human SNB75 cells at 10 uM assessed as cell growth relative to control; format: functional; conditions: read-out: Activity
MDA-MB-231 = assay: Cytotoxicity against human MDA-MB-231 cells at 10 uM assessed as cell growth relative to control; format: functional; conditions: read-out: Activity
SK-OV-3 = assay: Cytotoxicity against human SKOV3 cells at 10 uM assessed as cell growth relative to control; format: functional; conditions: read-out: Activity
SK-MEL-5 = assay: Cytotoxicity against human SK-MEL-5 cells at 10 uM assessed as cell growth relative to control; format: functional; conditions: read-out: Activity
SF-539 = assay: Cytotoxicity against human SF539 cells at 10 uM assessed as cell growth relative to control; format: functional; conditions: read-out: Activity
HCT-116 = assay: Cytotoxicity against human HCT116 cells at 10 uM assessed as cell growth relative to control; format: functional; conditions: read-out: Activity
K562 = assay: Cytotoxicity against human K562 cells at 10 uM assessed as cell growth relative to control; format: functional; conditions: read-out: Activity
IGROV-1 = assay: Cytotoxicity against human IGROV1 cells at 10 uM assessed as cell growth relative to control; format: functional; conditions: read-out: Activity

How did the inhibition [1] turn out when `CCOc1cc(NCc2ccccc2)c2ncn(C(C)C)c2c1` was run?
The inhibition was 63%.

For `N#CC(=C(/N)Sc1ccccc1N)/C(C#N)=C(\N)Sc1ccccc1N`, which inhibition [1] is on record?
The inhibition was 27%.

With `CCCCOc1cc(NCc2ccccc2)c2ncn(C(C)C)c2c1` as the compound, how does the inhibition [1] read?
The inhibition was 5%.

What does the source list for `CN1CCN(c2ccc3[nH]c(-c4ccc5[nH]c(-c6ccc(O)cc6)nc5c4)nc3c2)CC1` [HOECHST 33258]?
growth at 10 µM (RXF 393): -4%; growth at 10 µM (NCI-H522): -5.52%; growth at 10 µM (CCRF-CEM): -4.89%; growth at 10 µM (MDA-N): -5.06%; growth at 10 µM (BT-549): -4%; growth at 10 µM (NCI/ADR-RES): -4%; growth at 10 µM (HOP-62): -4%; growth at 10 µM (SNB-19): -4%; growth at 10 µM (M14): -4%; growth at 10 µM (SN12C): -4%; growth at 10 µM (HL-60(TB)): -4.62%; growth at 10 µM (U-251): -4%; inhibition [2]: 22%; growth at 10 µM (DU-145): -4%; inhibition [1]: 30%; growth at 10 µM (A498): -4%; growth at 10 µM (OVCAR-5): -4%; growth at 10 µM (NCI-H23): -4%; growth at 10 µM (PC-3): -4%; growth at 10 µM (SNB-75): -4%; growth at 10 µM (MDA-MB-231): -4%; growth at 10 µM (SK-OV-3): -4%; growth at 10 µM (SK-MEL-5): -4.01%; growth at 10 µM (SF-539): -4%; growth at 10 µM (HCT-116): -4.52%; growth at 10 µM (K562): -5.22%; growth at 10 µM (IGROV-1): -4%

`CCCOc1cc(NCc2ccccc2)c2ncn(C(C)C)c2c1` was tested. Which inhibition [1] did it give?
Its inhibition is 24%.

`COc1cc(N)c2c(c1)N(C(C)C)CN2` was tested. Which inhibition [2] did it give?
Its inhibition is 18%.

What about the inhibition [1] of the same compound?
Its inhibition is 42%.

`CC(C)Oc1cc(NCc2ccccc2)c2ncn(C(C)C)c2c1` was tested. Which inhibition [2] did it give?
Its inhibition is 0%.

What about the inhibition [1] of the same compound?
The inhibition was 22%.

With `CCOCCOc1cc(NCc2ccccc2)c2ncn(C(C)C)c2c1` as the compound, how does the inhibition [2] read?
The inhibition was 100%.

And the inhibition [1]?
Its inhibition is 75%.

Which inhibition [2] does the source give for `CC(C)n1cnc2c(NCc3ccccc3)cc(OCCCN3CCOCC3)cc21` here?
Its inhibition is 92%.

What about the inhibition [1] of the same compound?
Its inhibition is 0%.
